Among the data in patent US20080032985A1, “4-Substituted Quinoline Derivatives, Method and Intermediates for Their Preparation and Pharmaceutical Compositions Containing Them” (priority 2004, published 2008) are MIC and melting point values, retold here.

Series [1] has as its system H. influenzae MDK 1528 sensitive. The series is described as follows: MIC by dilutions in agar medium (NCCLS), Gram-negative. In kind it is cell-based. To be noted: Haemophilus influenzae; at 48 hours; agar dilution. The text has this: (§1) The method of dilutions in agar medium in agreement with the NCCLS recommendations is used for the determination of the minimum inhibitory concentrations (MIC) expressed in mg/l.
(§2) The activities of the compounds of examples 5, 8, 10-13 are grouped together in the following table: […]
In general terms: In agar dilution, organisms are placed on agar that contains the substance at set levels.

Series [2] deals with M. catarrhalis IPA151 sensitive. The series is described as above. In kind it is cell-based. To be noted: Moraxella catarrhalis, IPA151SENSITIVE; at 48 hours; agar dilution.
Excerpt: as §1, §2

Series [3] relates to S. aureus IP8203 sensitive. Kind of series: MIC by dilutions in agar medium (NCCLS), Gram-positive. The class given is cell-based. To be noted: Staphylococcus aureus; at 24 hours; agar dilution.
Excerpt: as §1, §2

Series [4] deals with E. faecalis ATCC S343211 vancomycin resistant. Described as above. In kind it is cell-based. To be noted: Enterococcus faecalis; at 24 hours; agar dilution.
Excerpt: as §1, §2

Series [5] has as its system S. aureus AS 5155 methicillin resistant. Described as above. In kind it is cell-based. The note with it: Staphylococcus aureus; at 24 hours; agar dilution.
Excerpt: as §1, §2

Series [6] has as its system S. pneumoniae 6254-01 MLSB resistant. Described as above. In kind it is cell-based. To be noted: Streptococcus pneumoniae; at 24 hours; agar dilution.
Excerpt: as §1, §2

SMILES strings stand for the structures. In brackets after ≈: the same amount, converted by molar mass.

In the case of `COc1ccc2ncc(F)c(CCCC(CNC/C=C/c3cc(F)ccc3F)C(=O)O)c2c1` (racemic) [Example 5, (RS)-2-{[(E)-3-(2,5-difluorophenyl)allylamino]methyl}-5-(3-fluoro-6-methoxyquinolin-4-yl)pentanoic acid], the MIC was in the range of 2 to 8 µg/mL (≈ 4.36 to 17.4 µM) in series [1]; 0.5 to 4 µg/mL (≈ 1.09 to 8.72 µM) in series [2]; 0.12 to 1 µg/mL (≈ 0.262 to 2.18 µM) in series [3]; 0.25 to 1 µg/mL (≈ 0.545 to 2.18 µM) in series [4]; 0.12 to 1 µg/mL (≈ 0.262 to 2.18 µM) in series [5]; 0.25 to 0.5 µg/mL (≈ 0.545 to 1.09 µM) in series [6].

In the case of `COc1ccc2ncc(F)c(CCCC(CNCCCc3cc(F)ccc3F)C(=O)O)c2c1` (racemic) [Example 8, (RS)-2-{[3-(2,5-difluorophenyl)propylamino]methyl}-5-(3-fluoro-6-methoxyquinolin-4-yl)pentanoic acid], the MIC in series [1] is 2 to 8 µg/mL (≈ 4.34 to 17.4 µM); in series [2] it was 0.5 to 4 µg/mL (≈ 1.09 to 8.69 µM); in series [3] it was 0.12 to 1 µg/mL (≈ 0.261 to 2.17 µM); in series [4], 0.25 to 1 µg/mL (≈ 0.543 to 2.17 µM); in series [5] it was 0.12 to 1 µg/mL (≈ 0.261 to 2.17 µM); in series [6] it was 0.25 to 0.5 µg/mL (≈ 0.543 to 1.09 µM).

Regarding `COc1ccc2ncc(F)c(CCCC(CN(C)C/C=C/c3cc(F)ccc3F)C(=O)[O-])c2c1.[Na+]` (racemic) [Example 10, Sodium (RS)-2-({N-[(E)-3-(2,5-difluorophenyl)allyl]-N-methylamino}methyl)-5-(3-fluoro-6-methoxyquinolin-4-yl)pentanoate], the MIC in series [1] was in the range of 2 to 8 µg/mL; in series [2], 0.5 to 4 µg/mL; in series [3], 0.12 to 1 µg/mL; in series [4], 0.25 to 1 µg/mL; in series [5], 0.12 to 1 µg/mL; in series [6], 0.25 to 0.5 µg/mL.

`COc1ccc2ncc(F)c(CCCC(CNCCSc3cccs3)C(=O)O)c2c1` (racemic) [Example 11, (RS)-5-(3-Fluoro-6-methoxyquinolin-4-yl)-2-{[2-(thiophen-2-ylsulfanyl)ethylamino]methyl}pentanoic acid]: the MIC lay in the range of 2 to 8 µg/mL (≈ 4.46 to 17.8 µM) in series [1]; 0.5 to 4 µg/mL (≈ 1.11 to 8.92 µM) in series [2]; 0.12 to 1 µg/mL (≈ 0.268 to 2.23 µM) in series [3]; 0.25 to 1 µg/mL (≈ 0.557 to 2.23 µM) in series [4]; 0.12 to 1 µg/mL (≈ 0.268 to 2.23 µM) in series [5]; 0.25 to 0.5 µg/mL (≈ 0.557 to 1.11 µM) in series [6].

As for `COc1ccc2ncc(F)c(CCCC(CNCCSc3cc(F)ccc3F)C(=O)O)c2c1` (racemic) [Example 12, (RS)-2-{[2-(2,5-Difluorophenylsulfanyl)ethylamino]-methyl}-5-(3-fluoro-6-methoxyquinolin-4-yl)pentanoic acid], the MIC is 2 to 8 µg/mL (≈ 4.18 to 16.7 µM) in series [1]; 0.5 to 4 µg/mL (≈ 1.04 to 8.36 µM) in series [2]; 0.12 to 1 µg/mL (≈ 0.251 to 2.09 µM) in series [3]; 0.25 to 1 µg/mL (≈ 0.522 to 2.09 µM) in series [4]; 0.12 to 1 µg/mL (≈ 0.251 to 2.09 µM) in series [5]; 0.25 to 0.5 µg/mL (≈ 0.522 to 1.04 µM) in series [6].

Take `COc1ccc2ncc(F)c(CCCC(CNCCOc3cc(F)ccc3F)C(=O)O)c2c1` (racemic) [Example 13, (RS)-2-{[2-(2,5-Difluorophenoxy)ethylamino]methyl}-5-(3-fluoro-6-methoxyquinolin-4-yl)pentanoic acid]: the MIC in series [1] was 2 to 8 µg/mL (≈ 4.32 to 17.3 µM); in series [2], 0.5 to 4 µg/mL (≈ 1.08 to 8.65 µM); in series [3] it was 0.12 to 1 µg/mL (≈ 0.259 to 2.16 µM); in series [4] it was 0.25 to 1 µg/mL (≈ 0.541 to 2.16 µM); in series [5], 0.12 to 1 µg/mL (≈ 0.259 to 2.16 µM); in series [6], 0.25 to 0.5 µg/mL (≈ 0.541 to 1.08 µM).

Consider `COc1ccc2ncc(F)c(CCCC(CN(C/C=C/c3cc(F)ccc3F)CCF)C(=O)O)c2c1` (racemic) [Example 14, (RS)-2-{[N-[(E)-3-(2,5-difluorophenyl)allyl]-N-(2-fluoroethyl)amino]methyl}-5-(3-fluoro-6-methoxy-quinolin-4-yl)pentanoic acid], for which the melting point (usually the temperature of the solid-liquid transition) was found to be 120 °C.

`COc1ccc2ncc(F)c(CCCC(CNC/C=C/c3cc(F)ccc3F)C(=O)O)c2c1` (single isomer, unassigned) [Example 6, 2-{[(E)-3-(2,5-difluorophenyl)allylamino]methyl}-5-(3-fluoro-6-methoxyquinolin-4-yl)pentanoic acid] yielded a melting point of 168 °C.

`COc1ccc2ncc(F)c(CCCC(CNC/C=C/c3cc(F)ccc3F)C(=O)O)c2c1` (single isomer, unassigned) [Example 7, 2-{[(E)-3-(2,5-difluorophenyl)allylamino]methyl}-5-(3-fluoro-6-methoxyquinolin-4-yl)pentanoic acid] returned a melting point of 166 °C.
